The values that follow come from ChEMBL document CHEMBL1129544, “A structure-activity relationship study of novel phenylacetamides which are sodium channel blockers” (J Med Chem, 1996).

The structures appear in SMILES notation. Where only a bound is given, the exact number is not on record here.

In this experiment the target is Sodium channel protein type 2 subunit alpha (Rattus norvegicus, UniProt P04775). Description: Inhibitory activity against type IIA sodium channel in CNaIIA-1 cell line expressed in CHO cells. The format is cell-based.
Sodium channel protein type 2 subunit alpha, sequence (P04775 whole entry): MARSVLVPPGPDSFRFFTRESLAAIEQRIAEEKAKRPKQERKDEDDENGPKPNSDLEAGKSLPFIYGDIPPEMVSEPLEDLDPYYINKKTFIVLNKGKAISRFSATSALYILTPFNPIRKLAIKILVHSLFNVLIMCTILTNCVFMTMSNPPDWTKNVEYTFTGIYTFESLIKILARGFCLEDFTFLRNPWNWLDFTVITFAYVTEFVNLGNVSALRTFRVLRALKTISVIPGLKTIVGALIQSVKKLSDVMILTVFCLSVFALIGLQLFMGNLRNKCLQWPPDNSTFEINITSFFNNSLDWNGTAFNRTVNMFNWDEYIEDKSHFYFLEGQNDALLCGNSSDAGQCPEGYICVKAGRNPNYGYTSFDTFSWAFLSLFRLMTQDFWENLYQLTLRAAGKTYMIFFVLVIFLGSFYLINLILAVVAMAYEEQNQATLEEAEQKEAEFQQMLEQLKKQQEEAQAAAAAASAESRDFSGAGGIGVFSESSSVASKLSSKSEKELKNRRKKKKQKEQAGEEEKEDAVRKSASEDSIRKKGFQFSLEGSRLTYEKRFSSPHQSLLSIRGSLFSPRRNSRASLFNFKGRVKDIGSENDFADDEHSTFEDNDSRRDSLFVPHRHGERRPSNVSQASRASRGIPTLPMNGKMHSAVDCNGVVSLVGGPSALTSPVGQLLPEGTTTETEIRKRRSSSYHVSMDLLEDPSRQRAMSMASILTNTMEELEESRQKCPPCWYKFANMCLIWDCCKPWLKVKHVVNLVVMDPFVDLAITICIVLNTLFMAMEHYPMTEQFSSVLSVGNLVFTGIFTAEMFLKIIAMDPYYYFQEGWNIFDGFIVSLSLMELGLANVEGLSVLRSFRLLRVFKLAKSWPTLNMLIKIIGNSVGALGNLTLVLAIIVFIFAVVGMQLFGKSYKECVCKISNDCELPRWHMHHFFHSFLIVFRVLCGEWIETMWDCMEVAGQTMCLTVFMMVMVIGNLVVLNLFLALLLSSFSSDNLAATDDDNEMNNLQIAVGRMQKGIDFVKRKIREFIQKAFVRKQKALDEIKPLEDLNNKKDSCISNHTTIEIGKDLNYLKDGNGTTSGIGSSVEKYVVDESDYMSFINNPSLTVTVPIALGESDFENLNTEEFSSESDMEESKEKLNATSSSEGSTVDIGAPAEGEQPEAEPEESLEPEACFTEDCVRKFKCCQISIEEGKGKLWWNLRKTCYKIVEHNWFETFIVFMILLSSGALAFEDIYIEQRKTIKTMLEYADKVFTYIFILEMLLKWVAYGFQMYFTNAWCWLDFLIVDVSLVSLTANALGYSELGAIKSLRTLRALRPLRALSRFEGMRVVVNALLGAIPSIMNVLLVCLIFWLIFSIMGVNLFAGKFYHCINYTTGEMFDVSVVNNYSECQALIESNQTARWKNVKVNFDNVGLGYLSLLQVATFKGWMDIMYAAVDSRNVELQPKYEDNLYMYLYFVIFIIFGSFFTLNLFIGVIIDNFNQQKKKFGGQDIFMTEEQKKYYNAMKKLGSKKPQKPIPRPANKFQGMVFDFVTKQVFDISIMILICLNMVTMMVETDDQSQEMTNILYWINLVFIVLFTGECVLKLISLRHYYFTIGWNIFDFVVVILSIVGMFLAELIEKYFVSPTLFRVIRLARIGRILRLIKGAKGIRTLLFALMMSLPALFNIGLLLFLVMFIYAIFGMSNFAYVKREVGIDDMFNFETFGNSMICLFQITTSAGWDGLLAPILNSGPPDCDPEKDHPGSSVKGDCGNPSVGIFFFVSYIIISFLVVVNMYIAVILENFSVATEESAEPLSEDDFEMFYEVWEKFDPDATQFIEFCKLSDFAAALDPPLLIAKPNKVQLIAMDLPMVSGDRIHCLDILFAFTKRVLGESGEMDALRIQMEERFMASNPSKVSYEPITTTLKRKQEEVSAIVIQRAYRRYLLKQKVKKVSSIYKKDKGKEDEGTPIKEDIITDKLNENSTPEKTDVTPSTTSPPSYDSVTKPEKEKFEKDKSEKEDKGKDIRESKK
As usually defined, the IC50 is the concentration at which inhibition is half-maximal. Turning to `O=C(NCCCN1CCOCC1)C(c1ccccc1)c1ccccc1`, half-maximal inhibition (IC50) required 6.5 µM.
The same measure for `CN1CCCC1CCNC(=O)C(c1ccccc1)c1ccccc1` (stereo not drawn): 32 µM.
As for `CN(CCCNC(=O)C(c1ccccc1)c1ccccc1)Cc1ccccc1`, the figure is 1.2 µM; as for `O=C(NC1CN2CCC1CC2)C(c1ccccc1)c1ccccc1` (stereo not drawn), 95 µM; as for `COc1ccccc1N1CCN(CCCNC(=O)C(c2ccccc2)c2ccccc2)CC1`, 1.2 µM.
For the compound `O=C(NCCCN1CCN(Cc2ccccc2)CC1)C(c1ccccc1)c1ccccc1`, the half-maximal inhibitory concentration (IC50) came to 0.7 µM.
`O=C(NCCCN1CCC(c2ccccc2)CC1)C(c1ccccc1)c1ccccc1` returned a 50% inhibitory concentration (IC50) of 1.1 µM.
As for `CCN(CC)CCCNC(=O)C(c1ccccc1)c1ccccc1`, the figure is 4.4 µM; as for `O=C(NCCCN1CCC(O)(c2ccccc2)CC1)C(c1ccccc1)c1ccccc1`, 2.2 µM; as for `CN1CCN(CCCNC(=O)C(c2ccccc2)c2ccccc2)CC1`, over 200 µM.
`O=C(NCCN1CCCCC1)C(c1ccccc1)c1ccccc1` yielded an IC50 of 7.2 µM.
The same measure for `O=C(NCCCN1CCCCC1)C(c1ccccc1)c1ccccc1`: 5.3 µM; for `O=C(NCCCN1CCC(n2c(=O)[nH]c3ccccc32)CC1)C(c1ccccc1)c1ccccc1`: 0.72 µM.
As for `O=C(NCCCN1CCC(Cc2ccccc2)CC1)C(c1ccccc1)c1ccccc1`, the figure is 0.6 µM.
The compound `CN(C)CCCNC(=O)C(c1ccccc1)c1ccccc1` came in with an IC50 of 20 µM.
Consider `CN(C)CCCN(C)C(=O)C(c1ccccc1)c1ccccc1`, for which the half-inhibitory concentration (IC50) is over 200 µM.
As for `NCCCNC(=O)C(c1ccccc1)c1ccccc1`, the figure is 40 µM.
As for `CC(CNC(=O)C(c1ccccc1)c1ccccc1)CN1CCC(c2ccccc2)CC1` (stereo not drawn), the figure is 1.5 µM; as for `O=C(NCCCCN1CCCCC1)C(c1ccccc1)c1ccccc1`, 10 µM; as for `CC1CCC(C)N1CCCNC(=O)C(c1ccccc1)c1ccccc1` (stereo not drawn), 4.6 µM.
As for `O=c1[nH]c2ccccc2n1C1CCN(CCCC(c2ccc(F)cc2)c2ccc(F)cc2)CC1` [PIMOZIDE], the figure is 0.34 µM.
As for `O=C(NCCCN1CCC(Oc2ccccc2)CC1)C(c1ccccc1)c1ccccc1`, the IC50 came out at 1.4 µM. Against the preceding compound, the IC50 is about 4.1-fold higher.
The same measure for `CC1CN(CCCNC(=O)C(c2ccccc2)c2ccccc2)CC(C)O1` (stereo not drawn): 2.7 µM.
